Experimental data reported in patent US9518064B2, “Imidazothiadiazole and imidazopyridazine derivatives as protease activated receptor 4 (PAR4) inhibitors for treating platelet aggregation” (BRISTOL-MYERS SQUIBB COMPANY, priority 2012, dated 2016).

Target: PAR4 (Homo sapiens (Human), UniProt Q96RI0)
Experiment: FLIPR assay in PAR4-expressing HEK293 cells (calcium mobilization)
Type: cell-based
Settings: PAR4 antagonist activity, FLIPR assay as described in Example A

PAR4, sequence (Q96RI0 18-385): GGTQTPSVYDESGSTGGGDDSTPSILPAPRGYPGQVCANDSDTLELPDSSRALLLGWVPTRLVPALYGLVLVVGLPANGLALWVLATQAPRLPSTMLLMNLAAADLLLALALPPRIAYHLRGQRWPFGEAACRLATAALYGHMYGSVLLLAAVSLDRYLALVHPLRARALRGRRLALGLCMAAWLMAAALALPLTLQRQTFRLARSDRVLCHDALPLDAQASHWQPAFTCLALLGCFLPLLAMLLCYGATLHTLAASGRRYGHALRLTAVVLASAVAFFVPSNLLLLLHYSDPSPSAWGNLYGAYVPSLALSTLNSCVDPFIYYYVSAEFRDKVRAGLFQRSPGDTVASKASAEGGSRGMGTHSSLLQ

SMILES | IC50 [nM]
COc1cc(OCc2cccc(-c3ncccn3)c2)c2cc(-c3cn4nc(OC)sc4n3)oc2c1 [Example 3, 2-Methoxy-6-(6-methoxy-4-((3-(pyrimidin-2-yl)benzyl)oxy)benzofuran-2-yl)imidazo[2,1-b][1,3,4]thiadiazole] | 3.08
COc1cc(OCc2cccc(-c3cc4ccccc4s3)c2)c2cc(-c3cn4nc(OC)sc4n3)oc2c1 [Example 4] | 9.35
COc1cc(OCc2cccc(-c3c(C)noc3C)c2)c2cc(-c3cn4nc(OC)sc4n3)oc2c1 [Example 5] | 2.36
COc1cc(OCc2cccc(-c3ccc(F)nc3)c2)c2cc(-c3cn4nc(OC)sc4n3)oc2c1 [Example 7] | 1.29
COc1ccc(-c2cccc(COc3cc(OC)cc4oc(-c5cn6nc(OC)sc6n5)cc34)c2)c(C)c1 [Example 8] | 1.69
COc1cc(OCc2cccc(-c3cnn(C)c3)c2)c2cc(-c3cn4nc(OC)sc4n3)oc2c1 [Example 10] | 3.55
COc1cc(OCc2cccc(-c3csc(C)n3)c2)c2cc(-c3cn4nc(OC)sc4n3)oc2c1 [Example 11] | 3.66
COc1cc(OCc2cccc(-c3csc4ccccc34)c2)c2cc(-c3cn4nc(OC)sc4n3)oc2c1 [Example 12] | 3.76
COc1cc(OCc2cccc(-c3ccc(F)cn3)c2)c2cc(-c3cn4nc(OC)sc4n3)oc2c1 [Example 14] | 1.53
COc1cc(OCc2cccc(-c3cccnc3)c2)c2cc(-c3cn4nc(OC)sc4n3)oc2c1 [Example 15] | 6.4
COc1cc(OCc2cccc(-c3ccc(F)cc3F)c2)c2cc(-c3cn4nc(OC)sc4n3)oc2c1 [Example 17] | 3.78
COc1cc(OCc2cccc(-c3cnc(OC)nc3OC)c2)c2cc(-c3cn4nc(OC)sc4n3)oc2c1 [Example 19] | 2.42
COc1cc(OCc2cccc(-c3ccc4nsnc4c3)c2)c2cc(-c3cn4nc(OC)sc4n3)oc2c1 [Example 20] | 8.54
COc1cc(OCc2cccc(-c3cnc4ccccn34)c2)c2cc(-c3cn4nc(OC)sc4n3)oc2c1 [Example 21] | 7.34
COc1cc(OCc2cccc(-c3ccc4nncn4c3)c2)c2cc(-c3cn4nc(OC)sc4n3)oc2c1 [Example 22] | 23.6
COc1cc(OCc2cccc(-c3ccc(C)cn3)c2)c2cc(-c3cn4nc(OC)sc4n3)oc2c1 [Example 25] | 2.04
COc1cc(OCc2cccc(-c3ccnc(C)c3)c2)c2cc(-c3cn4nc(OC)sc4n3)oc2c1 [Example 27] | 4.29
COc1cc(OCc2cccc(-c3coc(C(N)=O)c3)c2)c2cc(-c3cn4nc(OC)sc4n3)oc2c1 [Example 41] | 8.68
COc1cc(OCc2cccc(-c3ncccc3C#N)c2)c2cc(-c3cn4nc(OC)sc4n3)oc2c1 [Example 46] | 1.64
COc1cc(OCc2cccc(-c3ncc(Cl)cc3F)c2)c2cc(-c3cn4nc(OC)sc4n3)oc2c1 [Example 50] | 1.88
COc1cc(OCc2cccc(-c3ncc(Cl)cc3Cl)c2)c2cc(-c3cn4nc(OC)sc4n3)oc2c1 [Example 54] | 1.47
COc1cc(OCc2cccc(-c3ccc(C(=O)N4CCOCC4)nc3)c2)c2cc(-c3cn4nc(OC)sc4n3)oc2c1 [Example 57] | 1.66
COc1cc(OCc2cccc(-c3ccc(F)cn3)c2)c2cc(-c3cn4nc(C(C)(F)F)sc4n3)oc2c1 [Example 67] | 4.54
COc1cc(OCc2cc(F)cc(-c3ncc(F)cc3F)c2)c2cc(-c3cn4nc(OC)sc4n3)oc2c1 [Example 70] | 1.48
COc1cc(OCc2cncc(-c3ccccc3)c2)c2cc(-c3cn4nc(OC)sc4n3)oc2c1 [Example 72] | 7.19
COc1ccc(-c2cncc(COc3cc(OC)cc4oc(-c5cn6nc(OC)sc6n5)cc34)c2)cc1 [Example 73] | 2.18
COc1cc(OCc2cncc(-c3ccc(Cl)nc3)c2)c2cc(-c3cn4nc(OC)sc4n3)oc2c1 [Example 74] | 1.57
COc1cc(OCc2cncc(-c3cnc(OC)nc3)c2)c2cc(-c3cn4nc(OC)sc4n3)oc2c1 [Example 75] | 2.14
COc1cc(OCc2cccc(-c3ccc(Cl)nc3)n2)c2cc(-c3cn4nc(OC)sc4n3)oc2c1 [Example 76] | 6.66
COc1cc(OCc2cccc(-c3cnc(OC)nc3)n2)c2cc(-c3cn4nc(OC)sc4n3)oc2c1 [Example 77] | 2.18

Further compounds by falling IC50, results first:

IC50 [nM] | SMILES
1.26 | COc1cc(OCc2cccc(-c3ccsc3)c2)c2cc(-c3cn4nc(OC)sc4n3)oc2c1 [Example 9]
1.22 | COCOc1cnc(-c2cccc(COc3cc(OC)cc4oc(-c5cn6nc(OC)sc6n5)cc34)c2)cn1 [Example 58]
1.21 | COc1cc(OCc2cccc(-c3ncccc3F)c2)c2cc(-c3cn4nc(OC)sc4n3)oc2c1 [Example 44]
1.19 | COc1cc(OCc2cccc(-c3cnc(OC)cc3C)c2)c2cc(-c3cn4nc(OC)sc4n3)oc2c1 [Example 51]
1.08 | COc1cc(OCc2cncc(-c3ccoc3)c2)c2cc(-c3cn4nc(OC)sc4n3)oc2c1 [Example 65, 6-(4-((5-(Furan-3-yl)pyridin-3-yl)methoxy)-6-methoxybenzofuran-2-yl)-2-methoxyimidazo[2,1-b][1,3,4]thiadiazole]
1.05 | COc1cc(OCc2cccc(-c3cnc(C#N)cn3)c2)c2cc(-c3cn4nc(OC)sc4n3)oc2c1 [Example 42]
1.03 | COc1cc(OCc2cccc(-c3cccnc3F)c2)c2cc(-c3cn4nc(OC)sc4n3)oc2c1 [Example 45]
1 | COc1ccc(COC(C)c2ccc(-c3cccc(COc4cc(OC)cc5oc(-c6cn7nc(OC)sc7n6)cc45)c3)nc2)cc1 (stereo not shown) [Example 61]
0.95 | COc1ccc(-c2cccc(COc3cc(OC)cc4oc(-c5cn6nc(OC)sc6n5)cc34)n2)cc1 [Example 78]
0.84 | COc1ccc(-c2cc(F)cc(COc3cc(OC)cc4oc(-c5cn6nc(OC)sc6n5)cc34)c2)nc1 [Example 62, 6-(4-((3-Fluoro-5-(5-methoxypyridin-2-yl)benzyl)oxy)-6-methoxybenzofuran-2-yl)-2-methoxyimidazo[2,1-b][1,3,4]thiadiazole]
0.74 | COc1cc(OCc2cccc(-c3ccc(Cl)nc3)c2)c2cc(-c3cn4nc(OC)sc4n3)oc2c1 [Example 56]
0.69 | COc1cc(OCc2cccc(-c3ccnc(F)c3)c2)c2cc(-c3cn4nc(OC)sc4n3)oc2c1 [Example 55]
0.68 | COc1cc(OCc2cccc(-c3cnc(F)c(C)c3)c2)c2cc(-c3cn4nc(OC)sc4n3)oc2c1 [Example 38]
0.67 | COc1cc(OCc2cccc(-c3ncc(F)cc3F)c2)c2cc(-c3cn4nc(OC)sc4n3)oc2c1 [Example 33]
0.57 | COc1cc(COc2cc(OC)cc3oc(-c4cn5nc(OC)sc5n4)cc23)cc(-c2ccc(Cl)nc2)c1 [Example 66, 6-(4-((3-(6-Chloropyridin-3-yl)-5-methoxybenzyl)oxy)-6-methoxybenzofuran-2-yl)-2-methoxyimidazo[2,1b][1,3,4]thiadiazole]
0.56 | COc1cc(OCc2cccc(-c3ncc(Cl)cc3C)c2)c2cc(-c3cn4nc(OC)sc4n3)oc2c1 [Example 52]
0.53 | COc1cc(OCc2cccc(-c3ccc(C)nc3F)c2)c2cc(-c3cn4nc(OC)sc4n3)oc2c1 [Example 39]
0.38 | COc1cc(OCc2cccc(-c3ccc(Cl)cn3)c2)c2cc(-c3cn4nc(OC)sc4n3)oc2c1 [Example 36]
0.36 | CCCOc1ncc(-c2cccc(COc3cc(OC)cc4oc(-c5cn6nc(OC)sc6n5)cc34)c2)cn1 [Example 37]
